# Source: publication PMC6941357, “An in vitro toolbox to accelerate anti-malarial drug discovery and development” (Malaria Journal, 2020)
# Where “and” joins values, the source holds several entries; their conditions need not be identical. Equal entries are not always repeated. Where two headings read alike, the source gives them in different places. Marks after values point to notes of the source that are not given here.
# Key:
# human plasma [1] = test: Plasma protein binding via rapid equilibrium dialysis (RED), 10% plasma; assay type: in vitro ADME; conditions: RED, 10% plasma corrected for dilution
# How it was run: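 Pooled human plasma (3–4 donors) was diluted 1:10 in pH 7.4 phosphate buffer with 0.04 M NaCl, spiked to ~1000–3000 ng/mL total, and dialysed in RED units at 37 °C with shaking. Devices were pre-conditioned with compound in buffer. Neat-plasma fu was back-calculated from 10% plasma Ctotal and Cunbound (mean of n = 3–4).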
# human plasma [2] = test: Plasma protein binding via ultracentrifugation (UC); assay type: in vitro ADME; conditions: ultracentrifugation, neat plasma
# How it was run: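 Pooled human plasma (3–4 donors) spiked and ultracentrifuged; protein-free supernate gave Cunbound, parallel tubes kept at 37 °C gave Ctotal and stability (start vs end). Samples matrix-matched 1:1 with opposite blank and quantified against a common calibration curve; fu SD by error propagation.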
# [3] = cited from earlier work
# [4] = design: method as in earlier work; conditions: octanol/pH 7.4 buffer; ref 77 (M5717), 78 (DSM421); cited from earlier work
# Caco-2 cell monolayers = conditions: cited from earlier work; for Literature ER: Caco-2, ref [33], [35] of Additional file 1; for Literature Papp: Caco-2 A-B, ref [33]–[35] of Additional file 1; for A–B Papp / B–A Papp: corrected for fu
# [5] = human, cited from earlier work
# human liver microsomes = conditions: human liver microsomes; cited from earlier work
# CYP1A2 = molecular target: T1, CYP1A2 (Homo sapiens, UniProt P05177); design: from tissue; host or cells: human liver microsomes; conditions: human liver microsomes, cited from earlier work
# T1 sequence (P05177 1-516): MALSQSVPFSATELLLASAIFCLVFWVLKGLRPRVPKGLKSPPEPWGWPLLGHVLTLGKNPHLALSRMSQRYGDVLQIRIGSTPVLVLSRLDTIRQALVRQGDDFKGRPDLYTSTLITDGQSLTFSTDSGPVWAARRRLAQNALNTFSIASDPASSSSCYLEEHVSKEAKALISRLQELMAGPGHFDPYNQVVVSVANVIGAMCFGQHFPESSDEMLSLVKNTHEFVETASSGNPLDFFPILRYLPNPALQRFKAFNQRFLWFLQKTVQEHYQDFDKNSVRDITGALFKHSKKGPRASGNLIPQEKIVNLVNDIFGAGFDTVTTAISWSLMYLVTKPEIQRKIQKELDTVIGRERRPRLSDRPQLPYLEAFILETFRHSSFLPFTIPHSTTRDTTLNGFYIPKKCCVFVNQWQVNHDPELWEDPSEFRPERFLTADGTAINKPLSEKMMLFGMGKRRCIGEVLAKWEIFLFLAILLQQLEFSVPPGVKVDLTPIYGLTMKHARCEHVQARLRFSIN
# CYP3A4 = CYP3A4 (Homo sapiens, UniProt P08684); design: from tissue; host or cells: human liver microsomes; conditions: human liver microsomes, cited from earlier work
# CYP3A4, sequence (P08684 whole entry): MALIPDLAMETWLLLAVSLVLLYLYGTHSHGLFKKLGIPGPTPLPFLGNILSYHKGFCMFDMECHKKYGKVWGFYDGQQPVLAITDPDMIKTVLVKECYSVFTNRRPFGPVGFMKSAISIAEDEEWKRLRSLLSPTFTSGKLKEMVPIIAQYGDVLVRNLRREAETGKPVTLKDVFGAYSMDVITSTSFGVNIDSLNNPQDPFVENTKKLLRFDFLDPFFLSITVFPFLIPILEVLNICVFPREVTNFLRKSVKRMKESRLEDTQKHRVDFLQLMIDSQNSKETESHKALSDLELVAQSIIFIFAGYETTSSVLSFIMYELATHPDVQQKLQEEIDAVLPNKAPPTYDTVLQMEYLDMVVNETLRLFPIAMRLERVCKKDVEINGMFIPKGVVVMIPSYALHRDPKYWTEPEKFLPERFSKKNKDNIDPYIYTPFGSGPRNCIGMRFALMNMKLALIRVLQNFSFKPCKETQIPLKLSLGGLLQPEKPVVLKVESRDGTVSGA
# CYP2C19 = CYP2C19 (Homo sapiens, UniProt P33261); design: from tissue; host or cells: human liver microsomes; conditions: human liver microsomes, cited from earlier work
# CYP2C19, sequence (P33261 whole entry): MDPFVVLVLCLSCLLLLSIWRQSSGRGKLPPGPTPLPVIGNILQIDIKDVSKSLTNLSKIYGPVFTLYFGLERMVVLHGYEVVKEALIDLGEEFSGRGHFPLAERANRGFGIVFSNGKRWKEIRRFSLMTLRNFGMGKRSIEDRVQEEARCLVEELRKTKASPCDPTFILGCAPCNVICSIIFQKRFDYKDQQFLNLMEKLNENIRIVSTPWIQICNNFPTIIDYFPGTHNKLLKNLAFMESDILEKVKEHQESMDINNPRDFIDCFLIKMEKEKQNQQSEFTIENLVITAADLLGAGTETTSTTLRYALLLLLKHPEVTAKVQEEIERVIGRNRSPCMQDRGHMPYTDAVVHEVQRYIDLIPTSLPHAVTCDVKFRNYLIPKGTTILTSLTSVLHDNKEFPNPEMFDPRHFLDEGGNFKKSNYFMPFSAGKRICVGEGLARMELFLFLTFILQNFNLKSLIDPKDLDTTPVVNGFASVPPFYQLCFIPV
# CYP2D6 = CYP2D6 (Homo sapiens, UniProt P10635); design: from tissue; host or cells: human liver microsomes; conditions: human liver microsomes, cited from earlier work
# CYP2D6, sequence (P10635 whole entry): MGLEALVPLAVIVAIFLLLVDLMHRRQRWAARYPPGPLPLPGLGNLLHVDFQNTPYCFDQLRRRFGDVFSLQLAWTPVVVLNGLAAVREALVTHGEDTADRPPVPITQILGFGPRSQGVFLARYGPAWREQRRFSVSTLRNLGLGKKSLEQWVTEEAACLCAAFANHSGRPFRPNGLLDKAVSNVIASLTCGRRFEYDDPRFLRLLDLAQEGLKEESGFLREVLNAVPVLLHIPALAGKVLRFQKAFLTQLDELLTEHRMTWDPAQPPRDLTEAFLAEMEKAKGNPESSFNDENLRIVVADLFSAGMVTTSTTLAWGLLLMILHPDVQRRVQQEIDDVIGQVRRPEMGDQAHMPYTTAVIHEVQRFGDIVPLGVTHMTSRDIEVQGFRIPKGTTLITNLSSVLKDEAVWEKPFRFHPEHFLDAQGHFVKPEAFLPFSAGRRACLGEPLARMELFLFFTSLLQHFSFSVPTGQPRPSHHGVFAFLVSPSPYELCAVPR
# CYP2C9 = CYP2C9 (Homo sapiens, UniProt P11712); design: from tissue; host or cells: human liver microsomes; conditions: human liver microsomes, cited from earlier work
# CYP2C9, sequence (P11712 whole entry): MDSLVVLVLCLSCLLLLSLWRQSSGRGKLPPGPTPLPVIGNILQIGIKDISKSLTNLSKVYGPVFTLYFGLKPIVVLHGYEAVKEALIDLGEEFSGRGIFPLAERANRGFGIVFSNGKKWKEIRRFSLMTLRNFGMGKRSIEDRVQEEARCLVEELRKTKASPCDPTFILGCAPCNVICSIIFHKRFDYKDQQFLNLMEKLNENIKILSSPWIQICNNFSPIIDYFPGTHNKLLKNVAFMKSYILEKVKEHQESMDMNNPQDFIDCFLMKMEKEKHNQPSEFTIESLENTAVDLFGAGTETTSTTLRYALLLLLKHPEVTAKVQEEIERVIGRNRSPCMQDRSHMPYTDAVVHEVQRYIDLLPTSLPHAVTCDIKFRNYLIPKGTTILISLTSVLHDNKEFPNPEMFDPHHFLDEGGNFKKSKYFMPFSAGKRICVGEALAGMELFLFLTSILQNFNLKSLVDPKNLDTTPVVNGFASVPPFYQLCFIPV
# [6] = ref 77 (M5717), 78 (DSM421), 79 (DSM265)
# [7] = presaturation of device and 24 h dialysis
# [8] = apparent oral volume of distribution
smiles,measurement,setting,value
CC(C)(C)NCc1cc(C(C)(C)C)cc(-c2cnc(C(F)(F)F)c(F)c2)c1O [JPC3210],"Fraction unbound, human plasma",human plasma [1]; 6 h dialysis,0.0011 (0.0002)
same,"Fraction unbound, human plasma",human plasma [2],0.071
O=C(NCCN1CCCC1)c1cc(-c2ccc(CN3CCOCC3)cc2)nc2ccc(F)cc12 [M5717],"Fraction unbound, human plasma",human plasma [1]; 6 h dialysis,0.24 ± 0.0020^b
same,Solubility PBS7.4 (5–6 h),[3],> 3000 µg/mL and > 6490 µM
same,Solubility FaSSGF (1 h),[3]; [6],> 3000 µg/mL and > 6490 µM
same,Solubility FaSSIF-V2 (5–6 h),[3]; [6],> 3000 µg/mL and > 6490 µM
same,Solubility FeSSIF-V2 (5–6 h),[3]; [6],> 3000 µg/mL and > 6486 µM
same,"Fraction unbound, human plasma",human plasma [2],0.34 (0.021)
same,Measured Log D7.4,[4],2.50 ^g
OC(c1cc(C(F)(F)F)nc2c(C(F)(F)F)cccc12)C1CCCCN1 (stereo not drawn) [Mefloquine],Literature ER,Caco-2 cell monolayers,0.7
same,Literature Papp,Caco-2 cell monolayers,9.9 ± 0.7 10-6 cm/sec
same,A–B Papp,Caco-2 cell monolayers; matrix: human plasma,180 ± 20 10^−6 cm/s
same,B–A Papp,Caco-2 cell monolayers; matrix: human plasma,150 ± 10 10^−6 cm/s
COc1cc(N[C@H](C)CCCN)c2nccc(C)c2c1Oc1ccc(Cl)c(Cl)c1 [NPC1161B],"Fraction unbound, human plasma",human plasma [1]; 6 h dialysis,< 0.0003
same,"Fraction unbound, human plasma",human plasma [1]; [7],0.00074 ± 0.00016^c
same,"Fraction unbound, human plasma",human plasma [2],0.046 (0.0090)
CC(C)(C)NCc1cc(Nc2ccnc3cc(Cl)ccc23)c2c(c1O)CCCC2 [Naphthoquine],"Fraction unbound, human plasma",human plasma [1]; 6 h dialysis,0.019 (0.0010)
same,"Fraction unbound, human plasma",human plasma [1]; [7],0.018 ± 0.0010^c
same,"Fraction unbound, human plasma",human plasma [2],0.030 (0.0020)
same,Literature ER,Caco-2 cell monolayers,0.8
same,Literature Papp,Caco-2 cell monolayers,27.3 ± 0.6 10-6 cm/sec
same,A–B Papp,Caco-2 cell monolayers; matrix: human plasma,230 ± 32 10^−6 cm/s
same,B–A Papp,Caco-2 cell monolayers; matrix: human plasma,180 ± 10 10^−6 cm/s
same,efflux ratio,Caco-2 cell monolayers; matrix: human plasma,0.8 and 0.78
"CC(C)(N)CNC(=O)C[C@H]1CC[C@]2(CC1)OO[C@]1(O2)C2CC3CC(C2)CC1C3 [OZ277, Arterolane]",half-life,"[5]; in vivo, ref Table 10",~3 h
same,CL/F,[5],184 L/h
same,Food effect,[5],no
same,V/F,[5],929 L
same,half-life,[5],3 h
CCc1nc(N)nc(N)c1OCCCOc1ccccc1CCC(=O)O.Cl [P218],"Fraction unbound, human plasma",human plasma [2],0.13 ± 0.013
Clc1ccc2c(N3CCN(CCCN4CCN(c5ccnc6cc(Cl)ccc56)CC4)CC3)ccnc2c1 [Piperaquine],A–B Papp,Caco-2 cell monolayers; matrix: human plasma,> 300 10^−6 cm/s
same,B–A Papp,Caco-2 cell monolayers; matrix: human plasma,> 300 10^−6 cm/s
COc1cc(NC(C)CCCN)c2ncccc2c1 (stereo not drawn) [Primaquine],half-life,"[5]; in vivo, ref Table 10",~ 7 h
same,CL/F,[5]; apparent oral clearance,28 L/h
same,V/F,[5]; [8],277 L
same,Food effect,[5],no
same,half-life,[5],7 h
COc1ccc2nc3cc(Cl)ccc3c(Nc3cc(CN4CCCC4)c(O)c(CN4CCCC4)c3)c2n1 [Pyronaridine],Literature ER,Caco-2 cell monolayers,1.8
same,Literature Papp,Caco-2 cell monolayers,10.3 ± 0.3 10-6 cm/sec
CS(=O)(=O)O.FC1CCN(CCOc2ccc(C3CCC4(CC3)OOC3(OO4)C4CC5CC(C4)CC3C5)cc2)CC1 (stereo not drawn) [TDD-E209],HLM CLint,human liver microsomes,25.5^e µL/min/mg
same,"Fraction unbound, human plasma",human plasma [1]; 6 h dialysis,< 0.0001
same,"Fraction unbound, human plasma",human plasma [1]; [7],< 0.0001^c
same,IC50,CYP1A2,> 20 µM
same,CYP1A2 % inhibition at max conc,CYP1A2; nmi = no measurable inhibition,nmi
same,CYP3A4 (midaz) % inhibition at max conc,CYP3A4; CYP3A4 (midaz),33%
same,IC50,"CYP3A4; CYP3A4 (midaz), read-out: CYP3A4 (midaz) IC50",> 20 µM
same,CYP3A4 (test) % inhibition at max conc,CYP3A4; CYP3A4 (test),43%
same,IC50,"CYP3A4; CYP3A4 (test), read-out: CYP3A4 (test) IC50",> 20 µM
same,"Fraction unbound, human plasma",human plasma [2],0.094 (0.011)
same,IC50,CYP2C19,> 20 µM
same,CYP2C19 % inhibition at max conc,CYP2C19; nmi = no measurable inhibition,nmi
same,IC50,CYP2D6,> 20 µM
same,CYP2D6 % inhibition at max conc,CYP2D6; nmi = no measurable inhibition,nmi
same,IC50,CYP2C9,> 20 µM
same,CYP2C9 % inhibition at max conc,CYP2C9; nmi = no measurable inhibition,nmi
COc1cc(C)c2c(Oc3cccc(C(F)(F)F)c3)c(OC)cc(NC(C)CCCN)c2n1 (stereo not drawn) [Tafenoquine],CL/F,[5]; apparent oral clearance,3.0 L/h
same,V/F,[5]; [8],1600 L
same,Food effect,[5],yes
same,half-life,[5],360 h
same,half-life,[5]; ref Table 10,~ 15 days
